Data reported in ChEMBL document CHEMBL1201862, “PubChem BioAssay data set” (2004).
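Grown in 96-well plates, cells were treated for 48 hours with each compound at five concentrations. Insufficient inhibition: endpoint recorded as highest concentration tested. At the GI50, growth is halved.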 Activity calls are given as the source filed them. Rule as the data show it: active = GI50 up to about 1.1 µM and inactive = higher.

Experiments:
Assay in all cases: DTP human tumour cell line panel, 48 h
[1] = tested on: IGROV-1
[2] = tested on: MCF7
[3] = tested on: SNB-75
[4] = tested on: DMS-273
[5] = tested on: OVCAR-8
[6] = tested on: 786-0
[7] = tested on: NCI-H522
[8] = tested on: CAKI-1
[9] = tested on: MOLT-4
[10] = tested on: M14
[11] = tested on: A498
[12] = tested on: CCRF-CEM
[13] = tested on: UACC-257
[14] = tested on: MDA-N
[15] = tested on: EKVX
[16] = tested on: SW-620
[17] = tested on: HL-60
[18] = tested on: UO-31
[19] = tested on: HCC 2998
[20] = tested on: SK-MEL-2
[21] = tested on: NCI-H460
[22] = tested on: SNB-19
[23] = tested on: SR
[24] = tested on: SK-OV-3
[25] = tested on: T47D
[26] = tested on: RPMI-8226
[27] = tested on: NCI-H226
[28] = tested on: OVCAR-3
[29] = tested on: HOP-62
[30] = tested on: SK-MEL-5
[31] = tested on: HCT-116
[32] = tested on: PC-3
[33] = tested on: NCI-H23
[34] = tested on: COLO 205
[35] = tested on: HT-29
[36] = tested on: MDA-MB-435
[37] = tested on: DU-145
[38] = tested on: BT-549
[39] = tested on: UACC-62
[40] = tested on: MDA-MB-231
[41] = tested on: SF-268
[42] = tested on: U-251
[43] = tested on: LOX IMVI
[44] = tested on: NCI/ADR-RES
[45] = tested on: OVCAR-5
[46] = tested on: ACHN
[47] = tested on: SN12C
[48] = tested on: A549
[49] = tested on: TK-10
[50] = tested on: HOP-92
[51] = tested on: K562
[52] = tested on: KM12
[53] = tested on: SF-539
[54] = tested on: Hs-578T
[55] = tested on: SK-MEL-28
[56] = tested on: Malme-3M
[57] = tested on: HCT-15
[58] = tested on: SF-295
[59] = tested on: OVCAR-4
[60] = tested on: RXF 393
[61] = tested on: KM-20L2

Measured: GI50

NC(=O)c1cn(C2OC(CO)C(O)C2O)c2ncnc(N)c12 (configuration not stated)
active: [1] 0.0885 µM | [2] 0.0902 µM | [3] 0.0422 µM | [4] 0.0381 µM | [5] 0.139 µM

Cc1ccc(/C=C2\CN(C)CC3C2=NC(=S)NC3c2ccc(C)cc2)cc1 (configuration not stated)
36 µM: [57]
inactive: [6] 86.3 µM | [7] 24 µM | [8] > 77.1 µM | [1] 13.7 µM | [9] 14.6 µM | [10] 42.5 µM | [11] > 86.7 µM | [12] 13.8 µM | [13] 62.4 µM | [14] 22 µM | [15] 9.93 µM | [16] > 88.7 µM | [17] 31.3 µM | [18] 43.2 µM | [19] 16.1 µM | [2] 40.6 µM | [20] > 30.7 µM | [21] 41.8 µM | [22] > 61.9 µM | [23] 29.9 µM | [24] > 100 µM | [25] 26 µM | [26] 46.5 µM | [3] 60.8 µM | [27] > 100 µM | [28] 38.6 µM | [29] > 100 µM | [30] 38.5 µM | [31] 37.3 µM | [32] 11 µM | [33] > 74 µM | [34] 22.7 µM | [35] 27.2 µM | [36] 16.7 µM | [37] > 85.7 µM | [38] > 72.4 µM | [39] > 100 µM | [40] > 68.7 µM | [41] > 74.3 µM | [5] 53.1 µM | [42] 20.5 µM | [43] 34.7 µM | [44] 30.8 µM | [45] > 100 µM | [46] > 100 µM | [47] 52.1 µM | [48] 35.3 µM | [49] > 76.4 µM | [50] 1.69 µM | [51] 38.7 µM | [52] 32.1 µM | [53] > 100 µM | [54] > 100 µM | [55] > 100 µM | [56] 92.7 µM | [58] 61.8 µM | [59] 26.9 µM | [60] 30.3 µM

CN(C)c1ccc(C=c2c3ccccc3n3c2c2ccccc2[n+]3C)cc1
active: [6] 0.301 µM | [7] 0.174 µM | [8] 1.08 µM | [1] 0.82 µM | [9] 0.493 µM | [10] 0.493 µM | [12] 0.15 µM | [13] 0.33 µM | [14] 0.526 µM | [16] 0.164 µM | [17] 0.051 µM | [18] 0.836 µM | [19] 0.671 µM | [2] 0.822 µM | [20] 0.258 µM | [23] 0.199 µM | [25] 0.248 µM | [26] 0.138 µM | [28] 0.239 µM | [29] 0.942 µM | [30] 0.112 µM | [31] 0.354 µM | [32] 0.353 µM | [33] 1.01 µM | [34] 0.0682 µM | [35] 0.689 µM | [36] 0.428 µM | [38] 0.274 µM | [39] 0.305 µM | [40] 0.877 µM | [41] 0.425 µM | [5] 0.364 µM | [42] 0.196 µM | [43] 0.597 µM | [46] 0.867 µM | [47] 0.518 µM | [50] 0.421 µM | [51] 0.134 µM | [52] 1.01 µM | [53] 0.513 µM | [54] 0.635 µM | [55] 0.521 µM | [56] 0.392 µM
0.456 µM: [57]
inactive: [11] 1.69 µM | [15] 2.65 µM | [21] 2.84 µM | [22] 1.25 µM | [24] 2.64 µM | [3] 2.17 µM | [27] 3.08 µM | [37] 1.3 µM | [44] 3.93 µM | [45] 3.02 µM | [48] 3.73 µM | [49] 1.2 µM | [58] 1.52 µM | [59] 1.18 µM | [60] 1.52 µM

Cc1c(C#N)c2nnn(-c3ccc(Cl)cc3)c(=O)n2c1-c1ccccc1
inactive: [13] 3.15 µM | [18] 3.29 µM | [25] 6.58 µM | [55] 10.7 µM
active: [6] 0.12 µM | [7] 0.0586 µM | [8] 0.251 µM | [1] 0.113 µM | [9] 0.063 µM | [10] 0.0608 µM | [11] 0.124 µM | [12] 0.0991 µM | [14] 0.0173 µM | [15] 0.237 µM | [16] 0.113 µM | [17] 0.0752 µM | [19] 0.0713 µM | [2] 0.42 µM | [20] 0.0746 µM | [21] 0.0991 µM | [22] 0.195 µM | [23] < 0.0212 µM | [24] 0.145 µM | [26] 0.16 µM | [3] 0.275 µM | [27] 0.114 µM | [28] 0.047 µM | [29] 0.108 µM | [30] 0.0605 µM | [31] 0.0649 µM | [32] 0.0459 µM | [33] 0.167 µM | [34] 0.0357 µM | [35] 0.0553 µM | [36] < 0.0188 µM | [37] 0.0895 µM | [38] 0.37 µM | [39] 0.149 µM | [40] 0.102 µM | [41] 0.199 µM | [5] 0.163 µM | [42] 0.0815 µM | [43] 0.221 µM | [44] 0.0693 µM | [45] 0.247 µM | [46] 0.929 µM | [47] 0.107 µM | [48] 0.166 µM | [49] 0.476 µM | [50] 0.474 µM | [51] 0.0586 µM | [52] 0.051 µM | [53] 0.0492 µM | [54] 0.158 µM | [56] 0.0468 µM | [58] 0.0531 µM | [59] 0.351 µM | [60] 0.0764 µM
0.0628 µM: [57]

O=C(N/N=C/c1cc(Cl)cc(Cl)c1O)c1ccncc1
inactive: [6] 57.9 µM | [7] > 100 µM | [1] 63.5 µM | [9] 36.9 µM | [10] > 100 µM | [11] > 100 µM | [12] 31.2 µM | [13] > 100 µM | [15] 22 µM | [16] > 100 µM | [17] 26.4 µM | [18] 71.1 µM | [19] > 100 µM | [21] 39 µM | [22] > 100 µM | [61] 37.3 µM | [23] 39.1 µM | [24] > 100 µM | [26] > 100 µM | [3] > 100 µM | [27] > 100 µM | [28] 32.2 µM | [29] 53.2 µM | [30] 81.3 µM | [31] > 100 µM | [33] 78.9 µM | [34] > 100 µM | [35] > 10 µM | [39] 63 µM | [41] > 100 µM | [5] 70.6 µM | [42] 92.3 µM | [43] > 100 µM | [45] 39.1 µM | [46] 68.9 µM | [47] > 100 µM | [48] > 100 µM | [49] > 100 µM | [51] > 100 µM | [52] > 100 µM | [53] 68.5 µM | [55] > 100 µM | [56] > 100 µM | [58] 60.1 µM | [60] > 100 µM
29.7 µM: [57]

CC1(c2ccc(Cl)cc2)N=C(NCCO)c2ccccc21 (configuration not stated)
26.9 µM: [57]
inactive: [6] 12.5 µM | [7] 26.4 µM | [8] > 71 µM | [1] 22.9 µM | [9] 8.49 µM | [10] 9.84 µM | [11] 18.6 µM | [12] 2.9 µM | [13] 17.1 µM | [14] 10.7 µM | [15] > 100 µM | [16] 10.5 µM | [17] 3.23 µM | [18] 17.8 µM | [19] 12.2 µM | [2] 20.7 µM | [20] 18.2 µM | [21] 13.3 µM | [22] 14.7 µM | [23] 16.4 µM | [24] 88.7 µM | [25] 15.9 µM | [26] 2.74 µM | [3] 19.5 µM | [27] 11.1 µM | [28] 56.1 µM | [29] 25.1 µM | [30] 14.8 µM | [31] 5.37 µM | [32] 32.7 µM | [33] 13.8 µM | [34] 13.5 µM | [35] 5.74 µM | [36] 12.2 µM | [37] 2.07 µM | [38] 42 µM | [39] 12 µM | [40] 19.1 µM | [41] 42.9 µM | [5] 51.8 µM | [42] 16.9 µM | [43] 13.8 µM | [44] 99.5 µM | [45] 19.2 µM | [46] 29.4 µM | [47] 16.9 µM | [48] 23.7 µM | [49] 41.4 µM | [50] 8.53 µM | [51] 6.61 µM | [52] 15.7 µM | [53] 2.25 µM | [54] 37.8 µM | [55] 9.75 µM | [56] 17.9 µM | [58] 8.36 µM | [59] 67.9 µM | [60] 16.3 µM
